Consider four compounds from ChEMBL document CHEMBL1129526, “Angular furoquinolinones, psoralen analogs: novel antiproliferative agents for skin diseases. Synthesis, biological activity, mechanism of action, and computer-aided studies” (J Med Chem, 1996).

In data set [1] the test system is Ehrlich. The data set is described as follows: Compound was tested for the inhibition of RNA synthesis in Ehrlich cells by UV -A Irradiation. The class given is functional, Mus musculus.
Data set [2] relates to Ehrlich. The data set is described as follows: Compound was tested for the inhibition of DNA synthesis in Ehrlich cells by UV -A Irradiation. The format is functional, Mus musculus.
For data set [3], the system named is Ehrlich. The data set is described as follows: Compound was tested for the inhibition of RNA synthesis in Ehrlich cells by incubation in the dark relative to furoquinolinone. The format is functional, Mus musculus.
Data set [4] has as its system Ehrlich. Put plainly: Compound was tested for the inhibition of DNA synthesis in Ehrlich cells by incubation in the dark. Conditions: Mus musculus, read-out: ID50 (the source's name). The format is functional.
A short description of data set [5]: Surviving fraction was evaluated at concentration 4 uM in T2 phage. The class given is functional.
The test system of data set [6] is Ehrlich. The data set is described as follows: Compound was tested for the inhibition of RNA synthesis in Ehrlich cells by UV -A Irradiation relative to furoquinolinone. The format is functional, Mus musculus.
Data set [7] has as its system Ehrlich. Put plainly: Compound was tested for the inhibition of DNA synthesis in Ehrlich cells by UV -A Irradiation relative to furoquinolinone. The format is functional, Mus musculus.
Data set [8] has as its system Ehrlich. Put plainly: Compound was tested for the inhibition of RNA synthesis in Ehrlich cells by incubation in the dark. The class given is functional. Conditions: Mus musculus, read-out: ID50 (the source's name).
For data set [9], the system named is Ehrlich. Put plainly: Compound was tested for the inhibition of DNA synthesis in Ehrlich cells by incubation in the dark relative to furoquinolinone. The class given is functional, Mus musculus.
Data set [10] in a line: Solubility of compound in water. The class given is physicochemical. Conditions: for solubility: water, read-out: S.
A further data set is filed under the species Bos taurus. The data set is described as follows: Association constant of binding of compound with calf thymus DNA was determined by using equilibrium dialysis. Conditions: cattle. In general terms: In equilibrium dialysis only unbound substance equilibrates across the membrane.
Data set [11] is described as follows: Surviving fraction was evaluated at concentration 2 uM in T2 phage. The class given is functional.
The nature of data set [12]: Partition Coefficient in n-octanol / water medium. The format is physicochemical.

Converted amounts (≈) assume the structure as drawn.

For the compound `Cc1oc2c(C)cc3c(C)cc(=O)[nH]c3c2c1C`, the Du in the data set with Ehrlich [1] was 1.048; in the data set on Ehrlich [2] it was 1.19. In addition, the Relative activity with Ehrlich [3] turned out to be 0.256; in the data set on Ehrlich [6], 582; in the data set on Ehrlich [7], 102.6; in the data set with Ehrlich [9], 0.0926. Moreover, the values for the IC50 in the data set on Ehrlich [4] and in the data set with Ehrlich [8] were 25.2 µM and 5.27 µM, respectively. In data set [5], this compound returned a Surviving fraction of 0.7.

In turn, `COc1c2occc2cc2ccc(=O)oc12` [METHOXSALEN] returned a S in data set [10] (buffer) of 23 mg/mL. Moreover, the values for the Du in the data set on Ehrlich [1] and in the data set with Ehrlich [2] were 0.0018 and 0.0116, respectively. In the data set filed under Bos taurus, this compound showed a K of 736 M⁻¹. This compound had a Surviving fraction in [11] of 0.8. For the same compound, the Relative activity with Ehrlich [6] and in the data set on Ehrlich [7] was 1 in each case.

In the case of `Cc1cc2c(o1)c(C)cc1c(C)cc(=O)oc12`, the solubility in [10] was found to be 1460 µg/mL (≈ 6.4 mM). In addition, the Du in the data set with Ehrlich [1] came out at 0.0303; in the data set with Ehrlich [2], 0.0481. In the data set listed under Bos taurus, this compound gave a K of 10100 M⁻¹. The compound also yielded a Partition coefficient in data set [12] of 1897. Moreover, the Surviving fraction in data set [11] was found to be 0.6. Also, the values for the Relative activity in the data set on Ehrlich [6] and with Ehrlich [7] were 16.83 and 4.14, respectively.

Consider `Cc1cc2c(o1)c(C)cc1c(C)cc(=O)n(C)c12`, for which the solubility in data set [10] is 4700 µg/mL (≈ 19.5 mM). Further, the Du in the data set on Ehrlich [1] came out at 0.803; in the data set on Ehrlich [2] it was 0.9. In the data set listed under Bos taurus, this compound returned a K of 11700 M⁻¹. The Relative activity with Ehrlich [3] stood at 1; in the data set with Ehrlich [6] it was 461; in the data set on Ehrlich [7], 77.6; in the data set with Ehrlich [9] it was 1. Further, the Partition coefficient in data set [12] is reported as 163.5. Besides, the IC50 in the data set with Ehrlich [4] was determined as 2.33 µM; in the data set on Ehrlich [8], 1.35 µM. This compound had a Surviving fraction in data set [11] of 0.69.
